Data from US9763445B2, “Safened herbicidal compositions comprising a pyridine carboxylic acid herbicide” (Dow AgroSciences, LLC, priority 2014, dated 2017).

How the values were obtained:
shepherd's purse (CAPBP) [1] = experiment: Postemergence greenhouse trial, % visual injury on shepherd's purse; format: in vivo, Capsella bursa-pastoris
shepherd's purse (CAPBP) [2] = experiment: as above; format: in vivo, Capsella bursa-pastoris; conditions: alone
Method: (§1) Seeds of the desired test plant species were planted in Sun Gro MetroMix® 306 planting mixture, which typically has a pH of 6.0 to 6.8 and an organic matter content of about 30 percent, in plastic pots with a surface area of 103.2 square centimeters (cm^2). When required to ensure good germination and healthy plants, a fungicide treatment and/or other chemical or physical treatment was applied. The plants were grown for 7-36 days (d) in a greenhouse with an approximate 14-hour (h) photoperiod which was maintained at about 23° C. during the day and 22° C. during the night. Nutrients and water were added on a regular basis and supplemental lighting was provided with overhead metal halide 1000-Watt lamps as necessary. The plants were employed for testing when they reached the second or third true leaf stage.
(§2) Weighed amounts of technical material were dissolved in a volume of 97:3 volume per volume (v/v) acetone/dimethyl sulfoxide (DMSO) to stock solutions. […] The concentrated stock solutions were diluted with an aqueous mixture of 1.5% v/v of Agri-dex crop oil concentrate to provide the appropriate application rates. Compound requirements are based upon a 12 milliliter (mL) application volume at a rate of 187 liters per hectare (L/ha). Stocks solutions of the safeners were prepared following the same procedure. Spray solutions of the safeners and experimental compound mixtures were prepared by adding the stock solutions to the appropriate amount of dilution solution to form a 12 mL spray solution in two-way combinations. Formulated compounds were applied to the plant material with an overhead Mandel track sprayer equipped with 8002E nozzles calibrated to deliver 187 L/ha over an application area of 0.503 square meters (m^2) at a spray height of 18 inches (43 centimeters (cm)) above average plant canopy. Control plants were sprayed in the same manner with the solvent blank. All herbicide application (component a) rates are in g ae/ha and all safener (component b) rates are in g ai/ha.
(§3) The treated plants and control plants were placed in a greenhouse as described above and watered by sub-irrigation to prevent wash-off of the test compounds. After 20-22 d, the condition of the test plants as compared with that of the control plants was determined visually and scored on a scale of 0 to 100 percent where 0 corresponds to no injury and 100 corresponds to complete kill. The condition of the test plants was compared with that of the control plants as determined visually and scored on a scale of 0 to 100 percent, where 0 corresponds to no injury and 100 corresponds to complete kill. Colby's equation was used to determine the herbicidal effects expected from the mixtures.
(§4) The safener cloquintocet-mexyl was combined with compound 1, compound 2, compound 3, compound 7, compound 8, compound 9, compound 10, compound 11, compound 12, compound 13, compound 14, compound 15, compound 16, compound 17, compound 18, compound 19, and compound 20, and applied to spring wheat (TRZAS), winter wheat (TRZAW), and spring barley (HORVS) and the phytotoxicity of the herbicidal compositions was measured. […]

prickly lettuce (LACSE) = experiment: Postemergence greenhouse trial, % visual injury on prickly lettuce; format: in vivo, Lactuca serriola
Outline: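 Herbicide rates g ae/ha, safener (cloquintocet-mexyl) rates g ai/ha; spray carrier 1.5% v/v crop oil concentrate, 187 L/ha, 2nd–3rd leaf stage. Rating: visual % injury at 20-22 d.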

cleavers (GALAP) = experiment: Postemergence greenhouse trial, % visual injury on cleavers; format: in vivo, Galium aparine
Method: as §1, §2, §3, §4

cornflower (CENCY) [3] = experiment: Postemergence greenhouse trial, % visual injury on cornflower; format: in vivo, Centaurea cyanus or Cyanus segetum
[4] = test system: purple deadnettle (LAMPU); experiment: Postemergence greenhouse trial, % visual injury on purple deadnettle; format: in vivo, Lamium purpureum
Method: as §1, §2
as §3, with “mixtures. […]” for “mixtures.”

cornflower (CENCY) [5] = experiment: Postemergence greenhouse trial, % visual injury on cornflower; format: in vivo, Centaurea cyanus or Cyanus segetum; conditions: alone
Method: as §1, §2, §3, §4

wild buckwheat (POLCO) = experiment: Postemergence greenhouse trial, % visual injury on wild buckwheat; format: in vivo, Polygonum convolvulus; conditions: for % visual injury, observed (Ob): POLCO
Outline: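 Visual injury, 0 (none) to 100 (complete kill), rated 20-22 d after overhead track-sprayer application at 187 L/ha; Colby's equation gave expected mixture responses. Herbicide (g ae/ha) and cloquintocet-mexyl safener (g ai/ha) diluted in aqueous 1.5% v/v Agri-dex, applied to weeds at 2–3 true leaves.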

[6] = compound 0 g/ha, CQC-m 4.375 g/ha
[7] = compound 0 g/ha, CQC-m 8.75 g/ha
[8] = compound 0 g/ha, CQC-m 17.5 g/ha

CCCCCC(C)OC(=O)COc1ccc(Cl)c2cccnc12 (stereo not shown) [CQC-m, cloquintocet-mexyl, reference compound]
0%: % visual injury, Ob (shepherd's purse (CAPBP) [1]; compound 0, CQC-m 4.375 g/ha) | % visual injury, Ob (shepherd's purse (CAPBP) [1]; compound 0, CQC-m 8.75 g/ha) | % visual injury, Ob (shepherd's purse (CAPBP) [1]; compound 0, CQC-m 17.5 g/ha) | % visual injury, Ob (shepherd's purse (CAPBP) [1]; compound 0, CQC-m 35 g/ha) | % visual injury, Ob (shepherd's purse (CAPBP) [1]; compound 0, CQC-m 70 g/ha) | % visual injury, Ob (shepherd's purse (CAPBP) [1]; [6]) | % visual injury, Ob (shepherd's purse (CAPBP) [1]; [7]) | % visual injury, Ob (shepherd's purse (CAPBP) [1]; [8]) | % visual injury, Ob (shepherd's purse (CAPBP) [1]; compound 0 g/ha, CQC-m 35 g/ha) | % visual injury, Ob (shepherd's purse (CAPBP) [1]; compound 0 g/ha, CQC-m 70 g/ha) | % visual injury, Ob (shepherd's purse (CAPBP) [2]; 4.375 g/ha) | % visual injury, Ob (shepherd's purse (CAPBP) [2]; 8.75 g/ha) | % visual injury, Ob (shepherd's purse (CAPBP) [2]; 17.5 g/ha) | % visual injury, Ob (shepherd's purse (CAPBP) [2]; 35 g/ha) | % visual injury, Ob (shepherd's purse (CAPBP) [2]; 70 g/ha) | % visual injury, Ob (prickly lettuce (LACSE); LACSE, compound 0, CQC-m 4.375 g/ha) | % visual injury, Ob (prickly lettuce (LACSE); LACSE, compound 0, CQC-m 8.75 g/ha) | % visual injury, Ob (prickly lettuce (LACSE); LACSE, compound 0, CQC-m 17.5 g/ha) | % visual injury, Ob (prickly lettuce (LACSE); LACSE, compound 0, CQC-m 35 g/ha) | % visual injury, Ob (prickly lettuce (LACSE); LACSE, compound 0, CQC-m 70 g/ha) | % visual injury, Ob (prickly lettuce (LACSE); LACSE, compound 0 g/ha, CQC-m 4.375 g/ha) | % visual injury, Ob (prickly lettuce (LACSE); LACSE, compound 0 g/ha, CQC-m 8.75 g/ha) | % visual injury, Ob (prickly lettuce (LACSE); LACSE, compound 0 g/ha, CQC-m 17.5 g/ha) | % visual injury, Ob (prickly lettuce (LACSE); LACSE, compound 0 g/ha, CQC-m 35 g/ha) | % visual injury, Ob (prickly lettuce (LACSE); LACSE, compound 0 g/ha, CQC-m 70 g/ha) | % visual injury, Ob (prickly lettuce (LACSE); alone, 4.375 g/ha) | % visual injury, Ob (prickly lettuce (LACSE); alone, 8.75 g/ha) | % visual injury, Ob (prickly lettuce (LACSE); alone, 17.5 g/ha) | % visual injury, Ob (prickly lettuce (LACSE); alone, 35 g/ha) | % visual injury, Ob (prickly lettuce (LACSE); alone, 70 g/ha) | % visual injury, Ob (cleavers (GALAP); 4.375 g/ha, applied alone) | % visual injury, Ob (cleavers (GALAP); 8.75 g/ha, applied alone) | % visual injury, Ob (cleavers (GALAP); 17.5 g/ha, applied alone) | % visual injury, Ob (cleavers (GALAP); 35 g/ha, applied alone) | % visual injury, Ob (cleavers (GALAP); 70 g/ha, applied alone) | % visual injury, Ob (cleavers (GALAP); [6]) | % visual injury, Ob (cleavers (GALAP); [7]) | % visual injury, Ob (cleavers (GALAP); [8]) | % visual injury, Ob (cleavers (GALAP); compound 0 g/ha, CQC-m 35 g/ha) | % visual injury, Ob (cleavers (GALAP); compound 0 g/ha, CQC-m 70 g/ha) | % visual injury, Ob (cornflower (CENCY) [3]; CENCY, compound 0, CQC-m 4.375 g/ha) | % visual injury, Ob (cornflower (CENCY) [3]; CENCY, compound 0, CQC-m 8.75 g/ha) | % visual injury, Ob (cornflower (CENCY) [3]; CENCY, compound 0, CQC-m 17.5 g/ha) | % visual injury, Ob (cornflower (CENCY) [3]; CENCY, compound 0, CQC-m 35 g/ha) | % visual injury, Ob (cornflower (CENCY) [3]; CENCY, compound 0, CQC-m 70 g/ha) | % visual injury, Ob (cornflower (CENCY) [3]; CENCY, compound 0 g/ha, CQC-m 4.375 g/ha) | % visual injury, Ob (cornflower (CENCY) [3]; CENCY, compound 0 g/ha, CQC-m 8.75 g/ha) | % visual injury, Ob (cornflower (CENCY) [3]; CENCY, compound 0 g/ha, CQC-m 17.5 g/ha) | % visual injury, Ob (cornflower (CENCY) [3]; CENCY, compound 0 g/ha, CQC-m 35 g/ha) | % visual injury, Ob (cornflower (CENCY) [3]; CENCY, compound 0 g/ha, CQC-m 70 g/ha) | % visual injury, Ob (cornflower (CENCY) [3]; alone, 17.5 g/ha) | % visual injury, Ob (cornflower (CENCY) [3]; alone, 70 g/ha) | % visual injury, Ob ([4]; LAMPU, compound 0, CQC-m 4.375 g/ha) | % visual injury, Ob ([4]; LAMPU, compound 0, CQC-m 8.75 g/ha) | % visual injury, Ob ([4]; LAMPU, compound 0, CQC-m 17.5 g/ha) | % visual injury, Ob ([4]; LAMPU, compound 0, CQC-m 35 g/ha) | % visual injury, Ob ([4]; LAMPU, compound 0, CQC-m 70 g/ha) | % visual injury, Ob ([4]; LAMPU, compound 0 g/ha, CQC-m 4.375 g/ha) | % visual injury, Ob ([4]; LAMPU, compound 0 g/ha, CQC-m 8.75 g/ha) | % visual injury, Ob ([4]; LAMPU, compound 0 g/ha, CQC-m 17.5 g/ha) | % visual injury, Ob ([4]; LAMPU, compound 0 g/ha, CQC-m 35 g/ha) | % visual injury, Ob ([4]; LAMPU, compound 0 g/ha, CQC-m 70 g/ha) | % visual injury, Ob ([4]; alone, 4.375 g/ha) | % visual injury, Ob ([4]; alone, 8.75 g/ha) | % visual injury, Ob ([4]; alone, 17.5 g/ha) | % visual injury, Ob ([4]; alone, 35 g/ha) | % visual injury, Ob ([4]; alone, 70 g/ha) | % visual injury, Ob (cornflower (CENCY) [5]; 4.375 g/ha) | % visual injury, Ob (cornflower (CENCY) [5]; 8.75 g/ha) | % visual injury, Ob (cornflower (CENCY) [5]; 35 g/ha) | % visual injury, observed (Ob) (wild buckwheat (POLCO); compound 8 0 + CQC-m 4.375 g/ha) | % visual injury, observed (Ob) (wild buckwheat (POLCO); compound 8 0 + CQC-m 8.75 g/ha) | % visual injury, observed (Ob) (wild buckwheat (POLCO); compound 8 0 + CQC-m 17.5 g/ha) | % visual injury, observed (Ob) (wild buckwheat (POLCO); compound 8 0 + CQC-m 35 g/ha) | % visual injury, observed (Ob) (wild buckwheat (POLCO); compound 8 0 + CQC-m 70 g/ha) | % visual injury, Ob (wild buckwheat (POLCO); alone, 35 g/ha)
